# According to ChEMBL document CHEMBL1649234, “Antimicrobial activities of piperacillin-tazobactam against Haemophilus influenzae isolates, including beta-lactamase-negative ampicillin-resistant and beta-lactamase-positive amoxicillin-clavulanate-resistant isolates, and mutations in their quinolone resistance-determining regions” (2009):
# Legend:
# [1] = tested on: Haemophilus influenzae; experiment: Antimicrobial activity against beta-lactamase negative ampicillin-resistant Haemophilus influenzae by broth microdilution method in presence of beta-lactamase inhibitor clavulanic acid; type: functional
# [2] = tested on: Haemophilus influenzae; experiment: Antimicrobial activity against beta-lactamase negative ampicillin-resistant Haemophilus influenzae assessed as susceptible isolates by broth microdilution method in presence of beta-lactamase inhibitor clavulanic acid; type: functional
# [3] = tested on: Haemophilus influenzae; experiment: Antimicrobial activity against beta-lactamase positive (amoxicillin)clavulanate-resistant Haemophilus influenzae by broth microdilution method in presence of beta-lactamase inhibitor clavulanic acid; type: functional
# [4] = tested on: Haemophilus influenzae; experiment: Antimicrobial activity against beta-lactamase positive (amoxicillin)clavulanate-resistant Haemophilus influenzae assessed as susceptible isolates by broth microdilution method in presence of beta-lactamase inhibitor clavulanic acid; type: functional
# [5] = tested on: Haemophilus influenzae; experiment: Antimicrobial activity against beta-lactamase negative ampicillin-susceptible Haemophilus influenzae harboring […] mutant gene by broth microdilution method in presence of beta-lactamase inhibitor clavulanic acid; type: functional
# [6] = tested on: Haemophilus influenzae; experiment: Antimicrobial activity against beta-lactamase negative ampicillin-susceptible Haemophilus influenzae harboring […] mutant gene assessed as susceptible isolates by broth microdilution method in presence of beta-lactamase inhibitor clavulanic acid; type: functional
# [7] = tested on: Haemophilus influenzae; experiment: Antimicrobial activity against beta-lactamase-positive ampicillin-resistant Haemophilus influenzae harboring fst1 mutant gene by broth microdilution method in presence of beta-lactamase inhibitor clavulanic acid; type: functional
# [8] = tested on: Haemophilus influenzae; experiment: Antimicrobial activity against beta-lactamase-positive ampicillin-resistant Haemophilus influenzae harboring […] mutant gene assessed as susceptible isolates by broth microdilution method in presence of beta-lactamase inhibitor clavulanic acid; type: functional
# [9] = tested on: Haemophilus influenzae; experiment: Antimicrobial activity against beta-lactamase negative ampicillin-resistant -Haemophilus influenzae by broth microdilution method; type: functional
# [10] = tested on: Haemophilus influenzae; experiment: Antimicrobial activity against beta-lactamase negative ampicillin-resistant Haemophilus influenzae by broth microdilution method in presence of beta-lactamase inhibitor Sulbactam; type: functional
# [11] = tested on: Haemophilus influenzae; experiment: Antimicrobial activity against beta-lactamase negative ampicillin-resistant Haemophilus influenzae assessed as susceptible isolates by broth microdilution method; type: functional
# [12] = tested on: Haemophilus influenzae; experiment: Antimicrobial activity against beta-lactamase negative ampicillin-resistant Haemophilus influenzae assessed as susceptible isolates by broth microdilution method in presence of beta-lactamase inhibitor Sulbactam; type: functional
# [13] = tested on: Haemophilus influenzae; experiment: Antimicrobial activity against beta-lactamase positive (amoxicillin)clavulanate-resistant Haemophilus influenzae by broth microdilution method; type: functional
# [14] = tested on: Haemophilus influenzae; experiment: Antimicrobial activity against beta-lactamase positive (amoxicillin)clavulanate-resistant Haemophilus influenzae by broth microdilution method in presence of beta-lactamase inhibitor Sulbactam; type: functional
# [15] = tested on: Haemophilus influenzae; experiment: Antimicrobial activity against beta-lactamase positive (amoxicillin)clavulanate-resistant Haemophilus influenzae assessed as susceptible isolates by broth microdilution method; type: functional
# [16] = tested on: Haemophilus influenzae; experiment: Antimicrobial activity against beta-lactamase positive (amoxicillin)clavulanate-resistant Haemophilus influenzae assessed as susceptible isolates by broth microdilution method in presence of beta-lactamase inhibitor Sulbactam; type: functional
# [17] = tested on: Haemophilus influenzae; experiment: Antimicrobial activity against beta-lactamase negative ampicillin-susceptible Haemophilus influenzae harboring […] mutant gene by broth microdilution method; type: functional
# [18] = tested on: Haemophilus influenzae; experiment: Antimicrobial activity against beta-lactamase negative ampicillin-susceptible Haemophilus influenzae harboring […] mutant gene by broth microdilution method in presence of beta-lactamase inhibitor Sulbactam; type: functional
# [19] = tested on: Haemophilus influenzae; experiment: Antimicrobial activity against beta-lactamase negative ampicillin-susceptible Haemophilus influenzae harboring […] mutant gene assessed as susceptible isolates by broth microdilution method; type: functional
# [20] = tested on: Haemophilus influenzae; experiment: Antimicrobial activity against beta-lactamase negative ampicillin-susceptible Haemophilus influenzae harboring […] mutant gene assessed as susceptible isolates by broth microdilution method in presence of beta-lactamase inhibitor Sulbactam; type: functional
# [21] = tested on: Haemophilus influenzae; experiment: Antimicrobial activity against beta-lactamase-positive ampicillin-resistant Haemophilus influenzae harboring fst1 mutant gene by broth microdilution method; type: functional
# [22] = tested on: Haemophilus influenzae; experiment: Antimicrobial activity against beta-lactamase-positive ampicillin-resistant Haemophilus influenzae harboring fst1 mutant gene by broth microdilution method in presence of beta-lactamase inhibitor Sulbactam; type: functional
# [23] = tested on: Haemophilus influenzae; experiment: Antimicrobial activity against beta-lactamase-positive ampicillin-resistant Haemophilus influenzae harboring fst1 mutant gene assessed as susceptible isolates by broth microdilution method; type: functional
# [24] = tested on: Haemophilus influenzae; experiment: Antimicrobial activity against beta-lactamase-positive ampicillin-resistant Haemophilus influenzae harboring […] mutant gene assessed as susceptible isolates by broth microdilution method in presence of beta-lactamase inhibitor Sulbactam; type: functional
# [25] = tested on: Haemophilus influenzae; experiment: Antimicrobial activity against beta-lactamase negative ampicillin-susceptible-Haemophilus influenzae harboring gyrA Asp88Gly, gyrB Thr472Ile and parC Asp83Asn mutant gene by broth microdilution method
# [26] = tested on: Haemophilus influenzae; experiment: Antimicrobial activity against beta-lactamase positive ampicillin-resistant-Haemophilus influenzae gyrA Ser84Leu, parC Ser84Arg/Asn138Ser and parE Asp364Gly mutant gene by broth microdilution method
# [27] = tested on: Haemophilus influenzae; experiment: Antimicrobial activity against beta-lactamase positive ampicillin-resistant-Haemophilus influenzae gyrA Asp88Asn, parC Ser84Cys and parE Ala369Thr mutant gene by broth microdilution method
# [28] = tested on: Haemophilus influenzae; experiment: Antimicrobial activity against beta-lactamase negative ampicillin-resistant-Haemophilus influenzae harboring fst1 mutant gene and gyrA Ser84Leu, parC Ser133Ala/Asn138Ser mutant gene by broth microdilution method
# [29] = tested on: Haemophilus influenzae; experiment: Antimicrobial activity against beta-lactamase negative ampicillin-resistant-Haemophilus influenzae harboring fst1 mutant gene and gyrA Ser84Leu mutant gene by broth microdilution method
# [30] = tested on: Haemophilus influenzae; experiment: Antimicrobial activity against beta-lactamase negative ampicillin-resistant-Haemophilus influenzae harboring fst1 mutant gene and gyrA Ser84Leu, parC Asn138Ser and parE Ser474Asn mutant gene by broth microdilution method
# [31] = tested on: Haemophilus influenzae; experiment: Antimicrobial activity against beta-lactamase negative ampicillin-resistant-Haemophilus influenzae harboring fst1 mutant gene and gyrA Asp88Thr and parC Glu88Lys mutant gene by broth microdilution method
# [32] = tested on: Haemophilus influenzae; experiment: Antimicrobial activity against beta-lactamase positive (amoxicillin)-clavulanate-resistant Haemophilus influenzae harboring fst1 mutant gene and gyrA Ser84Leu/Asp88Gly, parC Glu88Lys and parE VAl392Ile/Asp420Asn mutant gene by broth microdilution method
# [33] = tested on: Haemophilus influenzae; experiment: Antimicrobial activity against beta-lactamase positive (amoxicillin)-clavulanate-resistant Haemophilus influenzae harboring fst1 mutant gene and gyrA Ser84Leu, parC Ser84Ile/Asn138Ser mutant gene by broth microdilution method
# [34] = tested on: Haemophilus influenzae; experiment: Antimicrobial activity against beta-lactamase positive (amoxicillin)-clavulanate-resistant -Haemophilus influenzae harboring fst1 mutant gene and gyrA Ser84Leu, parC Ser84Cys and parE Asp364Thr mutant gene by broth microdilution method
# [35] = tested on: Haemophilus influenzae; experiment: Antimicrobial activity against beta-lactamase positive (amoxicillin)-clavulanate-resistant Haemophilus influenzae harboring fst1 mutant gene and gyrA Ser84Leu, parC Ser84Cys and parE Ala369Thr mutant gene by broth microdilution method
# [36] = tested on: Haemophilus influenzae; experiment: Antimicrobial activity against beta-lactamase positive (amoxicillin)-clavulanate-resistant Haemophilus influenzae harboring fst1 mutant gene and gyrA Ser84Leu and parE Ala369Thr mutant gene by broth microdilution method
# [37] = tested on: Haemophilus influenzae; experiment: Antimicrobial activity against beta-lactamase positive (amoxicillin)-clavulanate-resistant Haemophilus influenzae harboring fst1 mutant gene and gyrA Asp88Thr mutant gene by broth microdilution method
# [38] = tested on: Haemophilus influenzae; experiment: Antimicrobial activity against beta-lactamase negative ampicillin-resistant Haemophilus influenzae by broth microdilution method in presence of beta-lactamase inhibitor Tazobactam; type: functional
# [39] = tested on: Haemophilus influenzae; experiment: Antimicrobial activity against beta-lactamase negative ampicillin-resistant Haemophilus influenzae assessed as susceptible isolates by broth microdilution method in presence of beta-lactamase inhibitor Tazobactam; type: functional
# [40] = tested on: Haemophilus influenzae; experiment: Antimicrobial activity against beta-lactamase positive (amoxicillin)clavulanate-resistant Haemophilus influenzae by broth microdilution method in presence of beta-lactamase inhibitor Tazobactam; type: functional
# [41] = tested on: Haemophilus influenzae; experiment: Antimicrobial activity against beta-lactamase positive (amoxicillin)clavulanate-resistant Haemophilus influenzae assessed as susceptible isolates by broth microdilution method in presence of beta-lactamase inhibitor Tazobactam; type: functional
# [42] = tested on: Haemophilus influenzae; experiment: Antimicrobial activity against beta-lactamase negative ampicillin-susceptible Haemophilus influenzae harboring […] mutant gene by broth microdilution method in presence of beta-lactamase inhibitor Tazobactam; type: functional
# [43] = tested on: Haemophilus influenzae; experiment: Antimicrobial activity against beta-lactamase negative ampicillin-susceptible Haemophilus influenzae harboring […] mutant gene assessed as susceptible isolates by broth microdilution method in presence of beta-lactamase inhibitor Tazobactam; type: functional
# [44] = tested on: Haemophilus influenzae; experiment: Antimicrobial activity against beta-lactamase-positive ampicillin-resistant Haemophilus influenzae harboring […] mutant gene by broth microdilution method in presence of beta-lactamase inhibitor Tazobactam; type: functional
# [45] = tested on: Haemophilus influenzae; experiment: Antimicrobial activity against beta-lactamase-positive ampicillin-resistant Haemophilus influenzae harboring fst1 mutant gene assessed as susceptible isolates by broth microdilution method in presence of beta-lactamase inhibitor Tazobactam; type: functional
# [46] = tested on: Haemophilus influenzae; experiment: Antimicrobial activity against beta-lactamase negative ampicillin-resistant-Haemophilus influenzae harboring […] mutant gene by disk diffusion method in presence of beta-lactamase inhibitor Tazobactam; type: functional
# [47] = tested on: Haemophilus influenzae; experiment: Antimicrobial activity against beta-lactamase negative […]-Haemophilus influenzae harboring […] mutant gene by disk diffusion method in presence of beta-lactamase inhibitor Tazobactam; type: functional
compound,measurement,setting,value
CC1(C)S[C@@H]2[C@H](NC(=O)[C@H](N)c3ccc(O)cc3)C(=O)N2[C@H]1C(=O)O [AMOXICILLIN],MIC50,[1],8 mg/L
same,MIC90,[1],8 mg/L
same,Activity,[2],27%
same,MIC,[3],8 mg/L
same,MIC50,[3],8 mg/L
same,MIC90,[3],8 mg/L
same,Activity,[4],0%
same,MIC50,[5],0.5 mg/L
same,MIC90,[5],1 mg/L
same,Activity,[6],100%
same,MIC,[7],0.5 mg/L
same,MIC50,[7],0.5 mg/L
same,MIC90,[7],1 mg/L
same,Activity,[8],100%
CC1(C)S[C@@H]2[C@H](NC(=O)[C@H](N)c3ccccc3)C(=O)N2[C@H]1C(=O)O [AMPICILLIN],MIC50,[9],4 mg/L
same,MIC90,[9],≥ 8 mg/L
same,MIC50,[10],4 mg/L
same,MIC90,[10],8 mg/L
same,Activity,[11],0%
same,Activity,[12],22%
same,MIC,[13],≥ 8 mg/L
same,MIC50,[13],≥ 8 mg/L
same,MIC90,[13],≥ 8 mg/L
same,MIC,[14],8 mg/L
same,MIC50,[14],8 mg/L
same,MIC90,[14],16 mg/L
same,Activity,[15],0%
same,Activity,[16],0%
same,MIC50,[17],0.25 mg/L
same,MIC90,[17],0.5 mg/L
same,MIC50,[18],0.5 mg/L
same,MIC90,[18],0.5 mg/L
same,Activity,[19],100%
same,Activity,[20],100%
same,MIC50,[21],≥ 8 mg/L
same,MIC90,[21],≥ 8 mg/L
same,MIC,[22],0.5 mg/L
same,MIC50,[22],0.25 mg/L
same,MIC90,[22],0.5 mg/L
same,Activity,[23],0%
same,Activity,[24],75%
CO/N=C(\C(=O)N[C@@H]1C(=O)N2C(C(=O)O)=C(CSc3nc(=O)c(O)nn3C)CS[C@H]12)c1csc(N)n1 [CEFTRIAXONE],MIC50,[9],0.25 mg/L
same,MIC90,[9],0.25 mg/L
same,Activity,[11],100%
same,MIC50,[13],0.12 mg/L
same,MIC90,[13],0.25 mg/L
same,Activity,[15],100%
O=C(O)c1cn(C2CC2)c2cc(N3CCNCC3)c(F)cc2c1=O [CIPROFLOXACIN],MIC,[25],0.25 mg/L
same,MIC,[26],0.25 mg/L
same,MIC,[27],0.25 mg/L
same,MIC,[28],0.06 mg/L
same,MIC,[29],0.06 mg/L
same,MIC,[30],0.06 mg/L
same,MIC,[31],0.06 mg/L
same,MIC,[32],16 mg/L
same,MIC,[33],0.5 mg/L
same,MIC,[34],0.25 mg/L
same,MIC,[35],0.06 mg/L
same,MIC,[36],0.06 mg/L
same,MIC,[37],0.06 mg/L
C[C@@H](O)[C@H]1C(=O)N2C(C(=O)O)=C(SCCNC=N)C[C@H]12 [IMIPENEM ANHYDROUS],MIC50,[9],1 mg/L
same,MIC90,[9],4 mg/L
same,Activity,[11],96%
same,MIC50,[13],2 mg/L
same,MIC90,[13],2 mg/L
same,Activity,[15],98%
C[C@@H](O)[C@H]1C(=O)N2C(C(=O)O)=C(S[C@@H]3CN[C@H](C(=O)N(C)C)C3)[C@H](C)[C@H]12 [MEROPENEM],MIC50,[9],0.25 mg/L
same,MIC90,[9],0.5 mg/L
same,Activity,[11],99%
same,MIC50,[13],0.25 mg/L
same,MIC90,[13],0.5 mg/L
same,Activity,[15],100%
CCN1CCN(C(=O)N[C@@H](C(=O)N[C@@H]2C(=O)N3[C@@H]2SC(C)(C)[C@@H]3C(=O)O)c2ccccc2)C(=O)C1=O [PIPERACILLIN],MIC50,[9],0.12 mg/L
same,MIC90,[9],0.25 mg/L
same,MIC50,[38],0.06 mg/L
same,MIC90,[38],0.12 mg/L
same,Activity,[39],100%
same,MIC50,[13],32 mg/L
same,MIC90,[13],≥ 64 mg/L
same,MIC50,[40],0.12 mg/L
same,MIC90,[40],0.25 mg/L
same,Activity,[41],100%
same,MIC,[42],≤ 0.03 mg/L
same,MIC50,[42],≤ 0.03 mg/L
same,MIC90,[42],0.06 mg/L
same,Activity,[43],100%
same,MIC,[44],≤ 0.03 mg/L
same,MIC50,[44],≤ 0.03 mg/L
same,MIC90,[44],0.06 mg/L
same,Activity,[45],100%
same,inhibition zone (IZ),[46],>=21 mm
same,inhibition zone (IZ),[47],>=21 mm
